Activity calls are given as the source filed them. No cut-off for these calls is given here.
What was measured:
[1] = molecular target: T1, Kinesin-like protein KIF11 (Homo sapiens) (UniProt P52732); experiment: Ratio of CK0106023 IC50 to compound IC50 for human ATPase activity KSP
T1 sequence (whole entry): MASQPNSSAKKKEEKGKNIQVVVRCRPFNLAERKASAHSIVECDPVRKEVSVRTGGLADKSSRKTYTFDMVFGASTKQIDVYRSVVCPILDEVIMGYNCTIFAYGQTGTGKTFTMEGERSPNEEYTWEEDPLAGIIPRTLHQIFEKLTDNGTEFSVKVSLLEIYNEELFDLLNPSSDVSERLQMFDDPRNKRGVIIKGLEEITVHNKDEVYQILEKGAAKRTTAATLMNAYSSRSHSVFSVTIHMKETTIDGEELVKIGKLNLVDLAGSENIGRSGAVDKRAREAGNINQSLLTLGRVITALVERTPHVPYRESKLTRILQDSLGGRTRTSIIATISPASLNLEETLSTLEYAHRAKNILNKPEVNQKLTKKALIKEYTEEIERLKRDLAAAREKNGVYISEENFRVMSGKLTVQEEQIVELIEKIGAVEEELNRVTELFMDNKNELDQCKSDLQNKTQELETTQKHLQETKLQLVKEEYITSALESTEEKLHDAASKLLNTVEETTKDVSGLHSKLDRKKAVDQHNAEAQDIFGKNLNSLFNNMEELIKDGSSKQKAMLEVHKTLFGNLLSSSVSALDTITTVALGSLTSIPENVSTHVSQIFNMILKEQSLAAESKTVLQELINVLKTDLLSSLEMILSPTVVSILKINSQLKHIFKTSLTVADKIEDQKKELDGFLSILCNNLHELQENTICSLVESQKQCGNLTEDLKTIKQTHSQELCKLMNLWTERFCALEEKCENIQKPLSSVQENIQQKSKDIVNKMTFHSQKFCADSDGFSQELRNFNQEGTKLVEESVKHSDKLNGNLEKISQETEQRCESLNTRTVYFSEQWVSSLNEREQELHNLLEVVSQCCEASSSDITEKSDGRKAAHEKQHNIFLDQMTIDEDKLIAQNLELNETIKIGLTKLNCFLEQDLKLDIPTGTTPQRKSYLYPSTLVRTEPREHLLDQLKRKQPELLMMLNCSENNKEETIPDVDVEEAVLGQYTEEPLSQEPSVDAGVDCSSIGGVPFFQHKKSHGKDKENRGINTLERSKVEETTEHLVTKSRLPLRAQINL

A549 [2] = experiment: Cell cycle arrest in human A549 cells assessed as accumulation at G2/M phase at 8 uM after 48 hrs using propidium iodide staining by flow cytometry (reference value: 8.7%); format: functional
A549 [3] = experiment: Induction of apoptosis in human A549 cells assessed as viable cells at 8 uM after 24 hrs using Annexin V/propidium iodide staining double staining by flow cytometry (reference value: 98.8%); format: functional; conditions: A549, 24 h, read-out: Activity
A549 [4] = experiment: Cell cycle arrest in human A549 cells assessed as accumulation at G1 phase at 8 uM after 48 hrs using propidium iodide staining by flow cytometry (reference value: 63.97%); format: functional
A549 [5] = experiment: Induction of apoptosis in human A549 cells assessed as viable cells at 12 uM after 26 hrs using Annexin V/propidium iodide staining double staining by flow cytometry (reference value: 98.8%); format: functional; conditions: A549, 26 h, read-out: Activity
A549 [6] = experiment: Cell cycle arrest in human A549 cells assessed as accumulation at G1 phase at 16 uM after 24 hrs using propidium iodide staining by flow cytometry (reference value: 81.45%); format: functional
A549 [7] = experiment: Induction of apoptosis in human A549 cells assessed as necrotic cells at 12 uM after 24 hrs using Annexin V/propidium iodide staining double staining by flow cytometry (reference value: 0.8%); format: functional
A549 [8] = experiment: Induction of apoptosis in human A549 cells assessed as decrease of Bcl-2 expression at 8 to 16 uM after 24 hrs by Western blotting; format: functional, cell-based
A549 [9] = experiment: Cell cycle arrest in human A549 cells assessed as accumulation at G1 phase at 16 uM after 48 hrs using propidium iodide staining by flow cytometry (reference value: 63.97%); format: functional
A549 [10] = experiment: Induction of apoptosis in human A549 cells assessed as necrotic cells at 16 uM after 24 hrs using Annexin V/propidium iodide staining double staining by flow cytometry (reference value: 0.8%); format: functional
A549 [11] = experiment: Induction of apoptosis in human A549 cells assessed as increase of p53 expression at 8 to 16 uM after 24 hrs by Western blotting; format: functional, cell-based
[12] = Toxicity in ICR mouse administered as ip qd for 5 days; format: organism-based; conditions: in vivo
A549 [13] = experiment: Cell cycle arrest in human A549 cells assessed as accumulation at G2/M phase at 16 uM after 48 hrs using propidium iodide staining by flow cytometry (reference value: 8.7%); format: functional
A549 [14] = experiment: Cell cycle arrest in human A549 cells assessed as accumulation at G2/M phase at 12 uM after 24 hrs using propidium iodide staining by flow cytometry (reference value: 8.76%); format: functional
A549 [15] = experiment: Induction of apoptosis in human A549 cells assessed as late apoptotic cells at 12 uM after 24 hrs using Annexin V/propidium iodide staining double staining by flow cytometry (reference value: 0.1%); format: functional
A549 [16] = experiment: Induction of morphological changes in human A549 cells assessed as monastral spindle phenotype formation at 8 uM after 24 hrs by immunofluorescent staining; format: functional, cell-based
AGS = experiment: Ratio of CK0106023 IC50 to compound IC50 for human AGS cells; format: functional
A549 [17] = experiment: Cell cycle arrest in human A549 cells assessed as accumulation at G2/M phase at 8 uM after 24 hrs using propidium iodide staining by flow cytometry (reference value: 8.76%); format: functional
A549 [18] = experiment: Cell cycle arrest in human A549 cells assessed as accumulation at G1 phase at 12 uM after 48 hrs using propidium iodide staining by flow cytometry (reference value: 63.97%); format: functional
A549 [19] = experiment: Cell cycle arrest in human A549 cells assessed as accumulation at G2/M phase at 16 uM after 24 hrs using propidium iodide staining by flow cytometry (reference value: 8.76%); format: functional
A549 [20] = experiment: Cell cycle arrest in human A549 cells assessed as accumulation at G1 phase at 8 uM after 24 hrs using propidium iodide staining by flow cytometry (reference value: 81.45%); format: functional
A549 [21] = experiment: Induction of apoptosis in human A549 cells assessed as early apoptotic cells at 12 uM after 24 hrs using Annexin V/propidium iodide staining double staining by flow cytometry (reference value: 0.4%); format: functional
A549 [22] = experiment: Cell cycle arrest in human A549 cells assessed as accumulation at G1 phase at 12 uM after 24 hrs using propidium iodide staining by flow cytometry (reference value: 81.45%); format: functional
Mus musculus = experiment: Toxicity in mouse S180 cells xenografted ICR mouse assessed as change in body weight at 25 mg/kg, ip administered for 10 days every other day measured on day 11 (reference value: 26.22 +/- 2.22 gram); format: organism-based, CCRF S-180; parameters: dose 25 mg/kg, route intraperitoneal; conditions: in vivo, 240 h
A549 [23] = experiment: Induction of apoptosis in human A549 cells assessed as early apoptotic cells at 8 uM after 24 hrs using Annexin V/propidium iodide staining double staining by flow cytometry (reference value: 0.4%); format: functional

## O=C1c2cc(N3CCCCC3)ccc2NC(Cc2ccccc2)N1c1ccc(O)cc1 (racemic)
[1]
  Ratio IC50: 5
A549 [2]
  Activity: 42.94%
A549 [3]
  viability at 8 µM: 78.5%
A549 [4]
  Activity: 17.63%
A549 [5]
  viability at 12 µM: 47.6%
A549 [6]
  Activity: 14.64%
A549 [7]
  Activity: 1%
A549 [8]
  Activity: Active
A549 [9]
  Activity: 1.13%
A549 [10]
  Activity: 0.9%
A549 [11]
  Activity: Active
[12]
  MTD at 120 h: 50 mg/kg
A549 [13]
  Activity: 64.42%
A549 [14]
  Activity: 59.14%
A549 [15]
  Activity: 1.2%
A549 [16]
  Activity: Active
AGS
  Ratio IC50: 8
A549 [17]
  Activity: 54.47%
A549 [18]
  Activity: 12.99%
A549 [19]
  Activity: 65.85%
A549 [20]
  Activity: 15.83%
A549 [21]
  Activity: 24.1%
A549 [22]
  Activity: 20.35%
Mus musculus
  Activity: 25.2 g
A549 [23]
  Activity: 18.3%

Source: ChEMBL document CHEMBL1817656, “De novo design, synthesis and biological evaluation of 1,4-dihydroquinolin-4-ones and 1,2,3,4-tetrahydroquinazolin-4-ones as potent kinesin spindle protein (KSP) inhibitors” (Bioorg Med Chem, 2011)
